Measured values reported in patent publication US11213524B2, “Pharmaceutical compositions for subcutaneous administration of levosimendan” (Tenax Therapeutics, Inc., priority 2018, dated 2022).
Values belong to the molecule of their own block, whether it stands above or below them.

Experiments:
[1] = Storage stability of lyophilized levosimendan/Captisol composition (HPLC % area); assay type: physicochemical; conditions: for quantity of OR-1420: after 6 months
Protocol: A study was conducted to determine the stability of a levosimendan composition of the present invention stored under different conditions for up to six months.
The composition used for the study comprised 3 mg/ml of levosimendan and 200 mg/ml of Captisol®. To prepare the composition, the levosimendan and Captisol® were mixed together, adjusted to a pH of 7.4 using 1N NaOH, and then lyophilized.
Samples were dissolved in 50% acetonitrile and stored frozen at approximately −20° C. The compositions were analyzed at the following time points: 0, 1-month, 2-months, 4-months, and 6-months. The compositions were taken out of storage and reconstituted using distilled water. A sample from each composition was diluted at 15x-150x and analyzed using HPLC (Sciex API 3200 Linear Ion Trap, Shimadzu LC-20ADVP HPLC Pumps, Shimadzu Controller SCL-10AVP, Shimadzu Autosampler SIL-20ADVP) under the following conditions: Column, Restek Raptor Biphenyl, 2.7 μm, 100×3 mm; Mobile phase A, 5 mM Ammonium Formate/0.1% FA in H2O; Mobile phase B, 100% methanol).

[2] = cited from earlier work
[3] = Pharmacokinetic study, IV vs subcutaneous dosing, plasma levosimendan and OR-1896 by HPLC/MS/MS; conditions: male, Sprague Dawley, rat, in vivo
Protocol: A pharmacokinetic study was conducted in male Sprague Dawley rats to compare subcutaneous administration of a composition of the present invention with IV administration of a formulation of levosimendan. The study evaluated levosimendan blood levels and pain at the injection site.
This study involved comparing the results of administering two subcutaneous compositions according to embodiments of the present invention to a previous pharmacokinetic study in which male rats were dosed by tail vein levosimendan as an IV bolus injection at 0.5 mg/kg using a 0.25 mg/ml solution. […]
Plasma samples were analyzed for levosimendan and OR-1896 (the primary metabolite) by HPLC/MS/MS. […]

[4] = Solubility of levosimendan at different Captisol concentrations (HPLC); assay type: physicochemical; conditions: 10 mM phosphate buffer, pH 7, Captisol 0, 50, 100, 200, 400 mg/ml, room temperature
Protocol: A study was conducted to evaluate the impact of the concentration of the cyclodextrin or cyclodextrin derivative on the solubility of levosimendan. In particular, the study focused on the cyclodextrin derivative, Captisol® (sulfobutylether beta-cyclodextrin).
The study compared compositions comprising levosimendan, 10 mM phosphate buffer, and Captisol® at the following concentrations: 0 mg/ml (i.e., no Captisol®), 50 mg/ml, 100 mg/ml, 200 mg/ml, and 400 mg/ml. The compositions with Captisol® were prepared by mixing the levosimendan and Captisol®, and adding the 10 mM phosphate buffer until the pH of the composition was 7. The compositions were stored at room temperature.
Captisol®'s impact on the solubility of levosimendan was determined using HPLC.

[5] = after four months, 25° C./60% RH
[6] = after six months, 25° C./60% RH

- Level of OR-1420 (% Area) ([1]; 5° C., 1-month): 0.055% Area
- Level of OR-1420 (% Area) ([1]; 5° C., 4-months): 0.057% Area
- Level of OR-1420 (% Area) ([1]; 5° C., 6-months): 0.112% Area
- Level of OR-1420 (% Area) ([1]; 25° C./60% RH, 1-month): 0.155% Area
- Level of OR-1420 (% Area) ([1]; 25° C./60% RH, 2-months): 0.212% Area
- Level of OR-1420 (% Area) ([1]; 25° C./60% RH, 4-months): 0.285% Area
- Level of OR-1420 (% Area) ([1]; 25° C./60% RH, 6-months): 0.377% Area
- Level of OR-1420 (% Area) ([1]; 40° C./75% RH, 1-month): 0.436% Area
- Level of OR-1420 (% Area) ([1]; 40° C./75% RH, 4-months): 0.999% Area
- Level of OR-1420 (% Area) ([1]; 40° C./75% RH, 6-months): 1.420% Area
- quantity of OR-1420 ([1]; 40° C./75% RH): below 1.5%
- Level of OR-1420 (% Area) ([1]; T0): 0.021% Area
- Level of Degradants (% Area) ([1]; after four months, 5° C.): 0.057 % Area
- Level of Degradants (% Area) [1, 5]: 0.285 % Area
- Level of Degradants (% Area) ([1]; after four months, 40° C./75% RH): 0.999 % Area
- Level of Degradants (% Area) ([1]; after four months, −20° C.): 0.045 % Area
- Level of Degradants (% Area) ([1]; after four months, −80° C.): 0.084 % Area
- Level of Degradants (% Area) ([1]; after six months, 5° C.): 0.112 % Area
- Level of Degradants (% Area) [1, 6]: 0.377 % Area
- Level of Degradants (% Area) ([1]; after six months, 40° C./75% RH): 1.42 % Area
- Level of Degradants (% Area) ([1]; after six months, −20° C.): 0.082 % Area
- Level of Degradants (% Area) ([1]; after six months, −80° C.): 0.083 % Area
- quantity of OR-1420 ([1]; all other storage conditions): less than 0.5%
- Level of OR-1420 (% Area) ([1]; −20° C., 1-month): 0.050% Area
- Level of OR-1420 (% Area) ([1]; −20° C., 4-months): 0.045% Area
- Level of OR-1420 (% Area) ([1]; −20° C., 6-months): 0.082% Area
- Level of OR-1420 (% Area) ([1]; −80° C., 1-month): 0.055% Area
- Level of OR-1420 (% Area) ([1]; −80° C., 4-months): 0.084% Area
- Level of OR-1420 (% Area) ([1]; −80° C., 6-months): 0.083% Area
Compound: C[C@@H]1CC(=O)NN=C1c1ccc(N/N=C(\C#N)C(N)=O)cc1 [OR-1420]

Compound: CC(=O)Nc1ccc(C2=NNC(=O)C[C@H]2C)cc1 [OR-1896]
- time at which maximum concentrations of OR-1896 are seen ([2]; after starting a 24-hour infusion): 2 to 4 days
- half-life of OR-1896 ([2]; heart failure patients): 70 to 80 h

Compound: C[C@@H]1CC(=O)NN=C1c1ccc(NN=C(C#N)C#N)cc1 [levosimendan, (−)-enantiomer of [[4-(1,4,5,6-tetrahydro-4-methyl-6-oxo-3-pyridazinyl)phenyl]hydrazono]prop anedinitrile]
- start of the β phase (loss of drug from blood mainly due to metabolism) [3]: about 2 hours
- share of total levosimendan dose reduced in the intestine to OR-1855 (minor pathway) ([2]; in vivo): approximately 6%
- terminal elimination half-life of levosimendan ([2]; in vivo): about 1 hour
- solubility of levosimendan [4]: increased as the concentration of Captisol® increased
- Levels of Levosimendan (% Area) ([1]; 3 mg/ml levosimendan, 200 mg/ml Captisol, lyophilized, T0): 99.98% Area
- Levels of Levosimendan (% Area) ([1]; 5° C., 1-month): 99.85% Area
- Levels of Levosimendan (% Area) ([1]; 5° C., 2-months): 100.00% Area
- Levels of Levosimendan (% Area) ([1]; 5° C., 4-months): 99.74% Area
- Levels of Levosimendan (% Area) ([1]; 5° C., 6-months): 99.73% Area
- Levels of Levosimendan (% Area) ([1]; 25° C./60% RH, 1-month): 99.75% Area
- Levels of Levosimendan (% Area) ([1]; 25° C./60% RH, 2-months): 99.79% Area
- Levels of Levosimendan (% Area) ([1]; 25° C./60% RH, 4-months): 99.51% Area
- Levels of Levosimendan (% Area) ([1]; 25° C./60% RH, 6-months): 99.49% Area
- Levels of Levosimendan (% Area) ([1]; 40° C./75% RH, 1-month): 99.51% Area
- Levels of Levosimendan (% Area) ([1]; 40° C./75% RH, 4-months): 98.88% Area
- Levels of Levosimendan (% Area) ([1]; 40° C./75% RH, 6-months): 98.37% Area
- Level of Degradants (% Area) ([1]; after four months, 5° C.): 99.91 % Area
- Level of Degradants (% Area) [1, 5]: 99.64 % Area
- Level of Degradants (% Area) ([1]; after four months, −20° C.): 99.93 % Area
- Level of Degradants (% Area) ([1]; after six months, 5° C.): 99.90 % Area
- Level of Degradants (% Area) [1, 6]: 99.57 % Area
- level of levosimendan ([1]; each storage condition, after six months): over 98%
- Levels of Levosimendan (% Area) ([1]; −20° C., 1-month): 99.83% Area
- Levels of Levosimendan (% Area) ([1]; −20° C., 4-months): 99.79% Area
- Levels of Levosimendan (% Area) ([1]; −20° C., 6-months): 99.72% Area
- Levels of Levosimendan (% Area) ([1]; −80° C., 1-month): 99.82% Area
- Levels of Levosimendan (% Area) ([1]; −80° C., 4-months): 99.74% Area
- Levels of Levosimendan (% Area) ([1]; −80° C., 6-months): 99.74% Area
